# Assay results from publication PMC6906431, “Selective small molecule PARG inhibitor causes replication fork stalling and cancer cell death” (Nature Communications, 2019).
# Where “and” joins values, the source holds several entries; their conditions need not be identical. Equal entries are not always repeated.
# Assays:
# Format in all cases: cell-based, human
# MRC-5 cells = experiment: Sulforhodamine B (SRB) cytotoxicity assay; settings: Homo sapiens, MRC5, 72 h
# Method: (§1) Fig. 6 Selective inhibition of PARG by xanthine derivative JA2131. a Clonogenic survival assays of PC3, MDA-MB-231, and MCF-7 cells treated with PARGi. Cells were treated with either DMSO or 10 µM JA2131 for 2 h, irradiated with 3 Gy (MDA-MB-231 and MCF-7), 7 Gy (PC3) IR and grown for ~2 weeks, then colonies were fixed with methanol and stained with crystal violet. The results of three independent experiments are shown. Error bars = the standard error of the mean (SEM). b dose-response of JA2131 in MDA-MB-231 cells with and without IR. Cells were treated with designated concentrations of JA2131 for 2 h and then either left untreated or exposed to 3 Gy IR and allowed to recover for 1 h before lysis. Total protein was immunoblotted with anti-PAR antibody (upper panel), stripped and reprobed with anti-PCNA as a loading control. c MDA-MB-231 cells with stable scrambled shRNA (WT) or stable PARG shRNA, knockdown (KD), were treated with 5 μM JA2131 for 2 h, lysed and then total lysates were immunoblotted for anti-PAR (upper panel) followed by anti-PARG (upper middle panel), anti-PARP1 (lower middle panel) and anti-actin (bottom panel) antibody. […] Stable cells with scramble shRNA (control) and shPARG (PARG-KD) cells were treated with an increasing concentration of JA2131 for growth inhibitory IC50 determination. The data was normalized against 100% survival at the lowest inhibitor concentration. Error bars show the percent coefficient of variation. Equivalent concentrations of DMSO were used as a negative control. e The cytotoxicity of JA2131 along with PDD, Veliparib and Doxorubicin against MRC-5 cells. Error bars show the percent coefficient of variation. f CETSA for in-cell JA2131 target engagement. Normalized anti-PARG western blot intensities of three independent experiments were fitted as above and the estimated aggregation temperature (Tagg) is shown in the tabulated insert. Source Data are provided as a Source Data file.
# [1] = test system: MDA-MB-231 control cells (scramble shRNA); experiment: Sulforhodamine B (SRB) cytotoxicity assay; settings: 72 h
# Method: as §1
# MDA-MB-231 PARG-KD cells = experiment: Sulforhodamine B (SRB) cytotoxicity assay
# Method: as §1
# [2] = Sulforhodamine B (SRB) cytotoxicity assay; settings: human; for viability at 72 h, 25 µM: log concentration μM 1.39794
# Method: as §1
# MDA-MB-231 cells = experiment: Clonogenic survival assay; settings: for colony count (clonogenic survival, raw replicate data, Supplementary Figure 8): MDA-MB-231
# Method: as §1
# (§2) PC3, MDA-MB-231 cells were maintained in RPMI 1640, MCF-7 cells in Eagle’s Minimum Essential Medium (EMEM), MRC-5 cells in Eagle’s Minimum Essential Medium and Hela and U2OS cells in Dulbecco’s modified Eagle’s high glucose medium (DMEM) supplemented with 10% (vol/vol) fetal bovine serum (FBS) and 1% antibiotic/antimycotic (Lonza) in a humidified incubator with 10% CO2. All cell lines were purchased from ATCC and regularly checked for mycoplasma and cell authentication. SUM 149PT cells were cultured in F-12 Hams (Gibco) supplemented with 5% fetal bovine serum, insulin, and hydrocortisone. Colony formation assays were carried out in 6-well plates, 500 cells were used per well and following designated treatment, and colonies were grown for 2 weeks. Cells were fixed with methanol (100%), stained with crystal violet and analyzed using a GelCount instrument (Oxford Optronix Ltd). Crystal Violet C6158 was purchased from Sigma. PARG knockdown cells were generated by infecting MDA-MB-231 cells with shPARG lentiviral particles (sc-106355-V, Santa Cruz Biotechnology), which contain a pool of three shRNA plasmids. After 24 h infection, 3 µg/ml puromycin (Invitrogen) was added and antibiotic-resistant cells were further expanded and used for experimentation. Sequence-1; hairpin sequence: […], sense: […]tt, Antisense: […]tt. Sequence-2; hairpin sequence, […]-[…], sense: […]tt, antisense: […]tt. Sequence-3; hairpin sequence: […]-[…], sense: […]tt, antisense: […]-GGUUUCCtt. Control cells were generated using the same process except that scramble lentiviral particles with scrambled sequences were used (sc-108080).
# (§3) Supplementary Fig. 8: Clonogenic survival of cells in the presence of PARGi and PARPi (a)
# (§4) Clonogenic survival of PC3 cells in response to indicated compounds. ( b) Clonogenic survival of
# (§5) MDA-MB-231 cells in response to i ndicated compounds. (c) Clonogenic survival of MCF -7 cells
# (§6) in response to indicated compounds. […]
# PC3 cells = experiment: Clonogenic survival assay; settings: for surviving colonies, Replicates: two weeks
# Method: as §1, §2, §3, §4, §5, §6
# [3] = 10 µM JA2131 2 h, 7 Gy IR, ~2 weeks
smiles,measurement,setting,value
Cn1c(=S)c2[nH]c(SCCN3CCOCC3)nc2n(C)c1=O [JA2131],IC50,MRC-5 cells,132 ± 35.9 µM
same,IC50,"[1]; Homo sapiens, MDA-MB-231, growth inhibitory",3.89 ± 0.88 µM
same,Viability,[1]; log concentration μM 0.193959,75.9862%
same,Viability,[1]; log concentration μM 0.49485,65.9005%
same,Viability,[1]; log concentration μM 0.79588,45.256%
same,Viability,[1]; log concentration μM 1.09691,30.1241%
same,Viability,[1]; log concentration μM 1.69897,14.974%
same,Viability,[1]; log concentration μM 2,13.0697%
same,Viability,[1]; log concentration μM 2.30103,16.4202%
same,Viability,[1]; log concentration μM -0.10735,96.2538%
same,Viability,[1]; log concentration μM -0.40782,101.482%
same,Viability,[1]; log concentration μM -0.70997,100%
same,Viability,[1]; log concentration μM -1.00877,100%
same,IC50 in PARG-depleted cells relative to control cells,MDA-MB-231 PARG-KD cells,~10 fold
same,fraction of PARG-KD cells responding to the PARGi,MDA-MB-231 PARG-KD cells,50%
same,IC50,"MDA-MB-231 PARG-KD cells; Homo sapiens, MDA-MB-231, growth inhibitory, 72 h",34.4 ± 13.3 µM
same,Viability,"MDA-MB-231 PARG-KD cells; log concentration μM 0.193959, 72 h",105.597%
same,Viability,"MDA-MB-231 PARG-KD cells; log concentration μM 0.49485, 72 h",101.727%
same,Viability,"MDA-MB-231 PARG-KD cells; log concentration μM 0.79588, 72 h",99.9152%
same,Viability,"MDA-MB-231 PARG-KD cells; log concentration μM 1.09691, 72 h",97.9571%
same,Viability,"MDA-MB-231 PARG-KD cells; log concentration μM 2, 72 h",52.7893%
same,Viability,"MDA-MB-231 PARG-KD cells; log concentration μM 2.30103, 72 h",51.5972%
same,Viability,"MDA-MB-231 PARG-KD cells; log concentration μM -0.10735, 72 h",104.639%
same,Viability,"MDA-MB-231 PARG-KD cells; log concentration μM -0.40782, 72 h",106.229%
same,Viability,"MDA-MB-231 PARG-KD cells; log concentration μM -0.70997, 72 h",102.262%
same,Viability,"MDA-MB-231 PARG-KD cells; log concentration μM -1.00877, 72 h",100%
same,"viability at 72 h, 25 µM","[2]; MDA-MB-231 cells with stable PARG shRNA knockdown (PARG-KD), 72 h",80.4%
same,"viability at 72 h, 50 µM","[2]; MDA-MB-231 cells with stable PARG shRNA knockdown (PARG-KD), log concentration μM 1.69897, 72 h",70.2%
same,"viability at 72 h, 25 µM",[2]; MDA-MB-231 control cells with stable scramble shRNA,17%
same,"viability at 72 h, 1.95 µM","[2]; MRC-5 cells, log [concentration] μM 0.29",98.4%
same,"viability at 72 h, 3.89 µM","[2]; MRC-5 cells, log [concentration] μM 0.59",99.3%
same,"viability at 72 h, 7.76 µM","[2]; MRC-5 cells, log [concentration] μM 0.89",98.5%
same,"viability at 72 h, 15.5 µM","[2]; MRC-5 cells, log [concentration] μM 1.19",100%
same,"viability at 72 h, 30.9 µM","[2]; MRC-5 cells, log [concentration] μM 1.49",91.9%
same,"viability at 72 h, 63.1 µM","[2]; MRC-5 cells, log [concentration] μM 1.8",79.9%
same,"viability at 72 h, 126 µM","[2]; MRC-5 cells, log [concentration] μM 2.1",61.4%
same,"viability at 72 h, 251 µM","[2]; MRC-5 cells, log [concentration] μM 2.4",28.2%
same,"viability at 72 h, 501 µM","[2]; MRC-5 cells, log [concentration] μM 2.7",20.4%
same,"viability at 72 h, 0.977 µM","[2]; MRC-5 cells, log [concentration] μM -0.01",93.5%
same,"viability at 72 h, 0.49 µM","[2]; MRC-5 cells, log [concentration] μM -0.31",100%
same,"viability at 72 h, 0.245 µM","[2]; MRC-5 cells, log [concentration] μM -0.61",100%
same,Surviving Fraction,"MDA-MB-231 cells; 10 µM JA2131 2 h, 3 Gy IR, ~2 weeks",0.4526 and 0.3681 and 0.2687 and 0.3631
same,"colony count (clonogenic survival, raw replicate data, Supplementary Figure 8)","MDA-MB-231 cells; Experiment-1, replicates 1-6",76 (2×) and 74 and 77 and 70 and 85
same,"colony count (clonogenic survival, raw replicate data, Supplementary Figure 8)","MDA-MB-231 cells; Experiment-2, replicates 1-6",61 (3×) and 68 and 76 and 65
same,"colony count (clonogenic survival, raw replicate data, Supplementary Figure 8)","MDA-MB-231 cells; Experiment-3, replicates 1-6",34 and 25 and 20 and 47 and 33 and 35
same,Surviving Fraction,PC3 cells; [3],0.7713 and 0.7545 and 0.8277 and 0.7845
same,clonogenic survival (Exp-1 to Exp-4),PC3 cells; [3],77.1344 and 75.4495 and 82.7709 and 78.4516
same,"surviving colonies, Replicates",PC3 cells; JA2131 0.5 uM,47 and 58 and 49 and 56 and 83 and 61
same,"surviving colonies, Replicates",PC3 cells; JA2131 1 uM,9 and 48 and 34 and 20 and 62 and 2
same,"surviving colonies, Replicates",PC3 cells; JA2131 5 uM,1 and 29 and 2 (2×) and 24 and 0
same,"surviving colonies, Replicates",PC3 cells; JA2131 10 uM,2 and 15 and 14 and 0 and 21 and 5
